According to ChEMBL document CHEMBL1122212, “Substance P” (1982):
Square brackets hold non-standard residues; d marks the D form. Peptide text beside a SMILES is read from it. pGlu = O=C1CC[C@@H](C(=O)O)N1

Columns and labels:
[1] = molecular target: Substance-P receptor (Rattus norvegicus) (UniProt P14600); assay: Potency for [3H]SP binding to Tachykinin receptor 1 in rat brain central nervous system (CNS); type: tissue-based
[2] = species: Cavia porcellus; assay: Potency of compound was determined for contraction of guinea pig ileum relative to substance P(=1); type: functional
[3] = species: Rattus norvegicus; assay: Potency of compound was determined in rat vas deferens relative to substance E; type: functional
[4] = tested on: Cricetinae gen. sp.; assay: Potency of compound was determined in hamster bladder relative to substance E; type: functional
[5] = species: Rattus norvegicus; assay: Potency of compound was determined in rat duodenum relative to substance E; type: functional
[6] = species: Cavia porcellus; assay: Potency of compound was determined for contraction of guinea pig vas deferens relative to substance P(=1); type: functional
[7] = species: Rattus norvegicus; assay: Potency of compound was determined for contraction of rat bladder relative to substance P(=1); type: functional

Chain of Substance-P receptor (Rattus norvegicus) (P14600 whole entry): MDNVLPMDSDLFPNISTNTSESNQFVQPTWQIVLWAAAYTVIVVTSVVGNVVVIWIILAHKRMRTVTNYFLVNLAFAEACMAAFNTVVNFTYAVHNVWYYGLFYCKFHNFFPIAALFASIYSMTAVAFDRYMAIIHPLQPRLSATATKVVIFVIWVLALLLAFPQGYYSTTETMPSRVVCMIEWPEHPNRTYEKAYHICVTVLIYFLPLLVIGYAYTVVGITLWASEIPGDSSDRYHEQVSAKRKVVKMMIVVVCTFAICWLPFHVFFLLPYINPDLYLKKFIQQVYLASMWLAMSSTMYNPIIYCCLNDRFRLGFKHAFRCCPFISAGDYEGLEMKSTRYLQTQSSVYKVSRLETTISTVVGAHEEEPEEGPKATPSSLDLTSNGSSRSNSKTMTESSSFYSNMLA

- Potency [1]: 0.3
Structure (SMILES): CC[C@H](C)[C@H](NC(=O)[C@H](Cc1ccccc1)NC(=O)[C@H](C)NC(=O)[C@H](CC(=O)O)NC(=O)[C@H](CCCCN)NC(=O)[C@H](CO)NC(=O)[C@@H]1CCCN1C(=O)[C@@H]1CCC(=O)N1)C(=O)NCC(=O)N[C@@H](CC(C)C)C(=O)N[C@@H](CCSC)C(N)=O [ELEDOISIN] ([pGlu]PSKDAFIGLM-NH2)
- Potency [2]: 0.9
- Potency [3]: 86
- Potency [4]: 105
- Potency [5]: 13.9
- Potency [6]: 0.6
- Potency [7]: 0.96
